Laboratory results published in US10526646B2, “Chromogenic peroxidase substrates” (Dako Denmark A/S, priority 2015, dated 2020).
≈ marks a conversion by molar mass, not a printed value.

How the values were obtained:
[1] = UV-VIS absorbance maxima of chromogenic conjugates and mixtures; format: physicochemical
Method: “Spectrally narrow” refers to a chromogen having less that 50 nm broadness at its maximum absorbance at half peak height by UV-VIS spectroscopy, measured in +99% water at pH, 6-8 in 10 μM concentration. A “magenta chromogen” is a spectrally narrow chromogen with peak absorbance between 525 and 530 nm, measured in +99% water at pH, 6.0-8.0 in 10 μM concentration. A “greenish-yellow chromogen” is a chromogen with peak absorbance below 475 nm and less than 10% absorbance at 530 nm or above relative to the peak absorbance, measured in +99% water at pH, 6.0-8.0 in 10 μM concentration. A “yellow chromogen” is a chromogen with peak absorbance below 505 nm and less than 10% absorbance at 530 nm or above relative to the peak absorbance, measured in +99% water at pH, 6.0-8.0 in 10 μM concentration. A “cyan chromogen” is a chromogen having maximal absorbance above 615 nm and less than 10% relative absorbance at any wavelength between 530 and 400 nm relative to the peak absorbance, measured in +99% water at pH, 6.0-8.0 m 10 μM concentration. An “orange chromogen” is a “spectrally narrow” chromogen that has maximum absorbance between 495 and 520 nm, measured in +99% water at pH, 6-8 in 10 μM concentration. A “dichroic chromogen” is a chromogen that has at least two absorbance maxima, separated by a local minimum at least 50 nm wide and one further global minimum between 390 and 700 nm measured in water between pH 6 and 8.

[2] = Solubility in substrate buffer as function of percentage of NMP; format: physicochemical
Method: Only Compound 6 having a piperazine amide stands out by absorbing at 536 nm, around 5 nm above the esters comprising Compounds 2, 13, 14 and 15 all with abs max within 531-533 nm. […] Addition of NMP to the buffer in all cases increased chromogen solubility. See result table below of the solubility of 2, 13 and 15 as function of percentage of NMP as organic co solvent, 0% representing neat aqueous buffer 50 mM imidazole: HCl, pH 6.8, 3% and 10% said percent.

HRP [3] = molecular target: T1, HRP (Armoracia rusticana, UniProt P00433); assay: IHC staining of FFPE human tissues and Her2 control cell lines, Envision+ Dual link HRP visualization, DAB as reference; design: species or system horse radish; settings: for colour of IHC stain / stain intensity and crispness compared with DAB: tested in 0.4 to 1 mM; for stain intensity and crispness compared with DAB: low and medium expression targets
T1 construct: purchased Dako K4061
T1 sequence (P00433 31-338): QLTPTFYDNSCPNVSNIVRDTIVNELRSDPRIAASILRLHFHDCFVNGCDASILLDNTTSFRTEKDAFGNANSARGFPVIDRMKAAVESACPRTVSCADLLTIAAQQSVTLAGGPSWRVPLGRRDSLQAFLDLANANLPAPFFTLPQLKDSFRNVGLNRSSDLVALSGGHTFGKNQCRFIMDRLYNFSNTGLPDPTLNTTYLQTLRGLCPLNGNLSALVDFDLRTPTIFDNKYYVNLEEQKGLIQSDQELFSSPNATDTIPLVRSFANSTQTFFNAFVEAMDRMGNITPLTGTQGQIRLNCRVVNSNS

HRP [4] = molecular target: T1, HRP; assay: Triple immunohistochemical staining (Ki67, CD20, Her2) on Dako Autostainer; design: species or system horse radish; settings: 0.5 mM conjugate, 50 mM imidazole:HCl pH 6.8, 0.003% hydrogen peroxide, 2.5% NMP, 5 min
Method: The exemplary triple staining method employed DAB in combination with Compounds 2 and 8, on a Dako Autostainer at room temperature. The steps of the method included: • 1. Blocking of endogenous peroxidase with peroxidase block (Dako S2023), 5 min. • 2. antiKi67 RTU antibody (Dako IR626), 20 mm • 3. Envision+dual Link HRP (Dako K4061), 20 min • 4. DAB (Dako K3468) 5 min. • 5. HRP quenching with peroxidase block (Dako S2023) with addition of 5 mg/mL alphacyano cinnamic acid, 5 min. • 6. antiCD20cy RTU antibody (Dako IR604), 20 min • 7. Envision+dual Link HRP (Dako K4061), 20 min • 8. 0.5 mM compound 2 in 50 mM imidazole: HCl pH 6.8, 0.003% hydrogen peroxide and 2.5% NMP, 5 min. • 9. HRP quenching with peroxidase block (Dako S2023) with addition of 5 mg/mL alphacyano cinnamic acid, 5 min. • 10. antiHer2 (Dako vial ST301 from HercepTest kit SK001) 20 min. • 11. Envision+dual Link HRP (Dako K4061), 20 min • 12. 0.5 mM compound 8 in 50 mM imidazole: HCl pH 6.8, 0.003% hydrogen peroxide and 2.5% NMP, 5 min. • 13. Counter stain with haematoxylin (Dako S3301)

HRP [5] = molecular target: T1, HRP; assay: Fast CISH on human tissue slides, antiFITC-HRP; design: species or system horse radish; settings: 1 mM in substrate buffer pH 6.8, 0.003% hydrogen peroxide, 5 min
HRP [6] = molecular target: T1, HRP; assay: Tissue staining with mixtures of chromogens in chromogen buffer; design: species or system horse radish

| SMILES | Absp nm (max) [1] | solubility ([2]; imidazole:HCl buffer (substrate buffer) with 3% NMP, aqueous buffer, 3% NMP in 50 mM imidazole:HCl pH 6.8) | solubility ([2]; imidazole:HCl buffer (substrate buffer) with 10% NMP, aqueous with cosolvent or surfactant or cyclodextrin, 10% NMP in 50 mM imidazole:HCl pH 6.8) | solubility ([2]; imidazole:HCl buffer (substrate buffer), 0% NMP, neat aqueous buffer 50 mM imidazole:HCl pH 6.8) | IHC staining performance of Rhodamine 6G derivatives with different 4-hydroxy cinnamic acid derivatives (HRP [3]; peroxidase substrate moiety varied) | colour of IHC stain (HRP [3]) | stain intensity and crispness compared with DAB (HRP [3]) | staining in the high expression range (HRP [3]; very high expression targets, trained observers) | stain produced in triple staining (HRP [4]) | CISH signals (HRP [5]) | mutagenicity (Mutagenicity test) | intensity compared with DAB (HRP [6]; 0.6 mM in 15 mM imidazole pH 6.8, 4% NMP, 0.1% NP40-Nonidet, 0.01% Benzalkonium chloride, 0.03% hydrogen peroxide) | colour of stain of compound alone (HRP [6]; alone) |
| --- | --- | --- | --- | --- | --- | --- | --- | --- | --- | --- | --- | --- | --- |
| CC/N=c1\cc2oc3cc(NCC)c(C)cc3c(-c3ccccc3C(=O)OCC(=O)NCCOCCOCCNC(=O)/C=C/c3ccc(O)cc3)c-2cc1C [Compound 2, Rhodamine 6G-L12-Cou] | 531 nm | 1200 µM (≈ 899 µg/mL) | 3600 µM (≈ 2700 µg/mL) | 1000 µM (≈ 749 µg/mL) | both strong and crisp stains with no background | red stains | fully matched DAB in intensity and crispness | performed better and more dynamically in the high expression range | red Her2 membrane stain | large and distinct dots in both Tonsil tissues | does not have significant mutagenicity | matching DAB in intensity in the low range | changed from bright magenta at low intensities toward more full reds at higher intensities |
| CCN(CC)c1ccc2c(-c3ccccc3C(=O)N3CCN(CC(=O)NCCOCCOCCNC(=O)/C=C/c4ccc(O)cc4)CC3)c3ccc(=[N+](CC)CC)cc-3oc2c1 [Compound 8, RhodamineB-Pip-L12-Cou] | 567 nm |  |  |  |  | slightly bluish purple stains | more than matched DAB in intensity and crispness |  | purple CD20 membrane stain |  |  |  |  |
